The values below come from ChEMBL document CHEMBL4420076, “Amylin and calcitonin receptor agonist” (2017).

Numbered stars: 1 amine (or outer) side, 2 acyl side, 3 side chain; on linkers, the order of the positions; unused ones are H or OH. Peptide text beside a SMILES is read from it. * marks the point of attachment. C20 diacid = O=C(O)CCCCCCCCCCCCCCCCCCC(=O)*; C18 diacid = O=C(O)CCCCCCCCCCCCCCCCC(=O)*; γGlu = O=C(O)[C@H](CCC(=O)[*:2])N[*:1]

As a reminder, the EC50 is the concentration that produces a half-maximal response. As a reminder, the solubility is the concentration that dissolves in the medium under given conditions. Broadly, the IC50 is the midpoint of a concentration-inhibition curve.

The target of data set [1] is T1, Amylin receptor AMY3; CALCR/RAMP3 (Homo sapiens, UniProt O60896+P30988).
T1 sequence (P30988 whole entry): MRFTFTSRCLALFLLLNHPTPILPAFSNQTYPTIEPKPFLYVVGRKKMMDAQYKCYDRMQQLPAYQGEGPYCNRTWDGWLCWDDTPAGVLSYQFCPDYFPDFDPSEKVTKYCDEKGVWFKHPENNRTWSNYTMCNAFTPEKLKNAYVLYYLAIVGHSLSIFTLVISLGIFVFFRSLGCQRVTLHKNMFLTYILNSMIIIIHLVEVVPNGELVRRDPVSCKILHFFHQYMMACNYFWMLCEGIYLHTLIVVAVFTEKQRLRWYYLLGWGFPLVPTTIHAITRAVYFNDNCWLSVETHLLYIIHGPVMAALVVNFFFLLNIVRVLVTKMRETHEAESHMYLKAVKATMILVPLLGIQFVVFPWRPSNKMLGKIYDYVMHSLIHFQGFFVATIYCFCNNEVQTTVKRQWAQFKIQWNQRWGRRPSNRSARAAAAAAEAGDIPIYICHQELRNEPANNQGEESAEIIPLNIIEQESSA
T1 sequence (O60896 whole entry): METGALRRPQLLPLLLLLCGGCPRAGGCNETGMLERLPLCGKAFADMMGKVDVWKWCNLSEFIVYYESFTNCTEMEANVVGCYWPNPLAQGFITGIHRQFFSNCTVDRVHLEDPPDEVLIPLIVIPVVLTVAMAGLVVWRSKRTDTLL
In words: Agonist activity at human amylin receptor expressed in BHK570 cells co-expressing RAMP3 assessed as increase in intracellular cAMP concentration incubated for 3 hrs in absence of albumin by CRE luciferase reporter gene assay. Type of data set: functional, cell-based.

The target of data set [2] is T2, Calcitonin receptor (Homo sapiens, UniProt P30988).
T2 sequence (P30988 whole entry): T1 sequence (P30988 whole entry)
In words: Agonist activity at human calcitonin receptor expressed in BHK570 cells assessed as increase in intracellular cAMP concentration incubated for 3 hrs in absence of albumin by CRE luciferase reporter gene assay. Format: functional, cell-based.

Data set [3] has as its target T1, Amylin receptor AMY3; CALCR/RAMP3. In words: Agonist activity at human amylin receptor expressed in BHK570 cells co-expressing RAMP3 assessed as increase in intracellular cAMP concentration incubated for 3 hrs in presence of 10% FBS by CRE luciferase reporter gene assay. Type of data set: functional, cell-based. (In a reporter assay the amount or activity of a reporter protein is the signal.)

Data set [4] has as its target T2, Calcitonin receptor. In words: Agonist activity at human calcitonin receptor expressed in BHK570 cells assessed as increase in intracellular cAMP concentration incubated for 3 hrs in presence of 10% FBS by CRE luciferase reporter gene assay. Type of data set: functional, cell-based.
Data set [5] in a line: Solubility in 100 mM glycylglycine buffer at pH 3.0 incubated for 18 hrs by UPLC analysis. Format: physicochemical.
Data set [6] is described as follows: Solubility in 100 mM glycylglycine buffer at pH 4.0 incubated for 18 hrs by UPLC analysis. Type of data set: physicochemical.
Data set [7] in a line: Solubility in 100 mM bistrispropane buffer at pH 6.0 incubated for 18 hrs by UPLC analysis. Format: physicochemical.
Data set [8] can be described thus: Solubility in 100 mM glycylglycine buffer at pH 5.0 incubated for 18 hrs by UPLC analysis. Format: physicochemical.
A short description of data set [9]: Solubility in 100 mM bistrispropane buffer at pH 6.5 incubated for 18 hrs by UPLC analysis. Type of data set: physicochemical.
Data set [10] can be described thus: Solubility in 100 mM bistrispropane buffer at pH 7.0 incubated for 18 hrs by UPLC analysis. Type of data set: physicochemical.
Data set [11] is described as follows: Solubility in 100 mM bistrispropane buffer at pH 7.5 incubated for 18 hrs by UPLC analysis. Format: physicochemical.
Data set [12] can be described thus: Solubility in 100 mM bistrispropane buffer at pH 8.0 incubated for 18 hrs by UPLC analysis. Type of data set: physicochemical.
The target in data set [13] is T1, Amylin receptor AMY3; CALCR/RAMP3. In words: Displacement of [125I]-labeled rat amylin from human amylin receptor expressed in BHK tkts13 whole cells co-expressing RAMP3 incubated for 60 mins by scintillation proximity assay. Type of data set: cell-based. In general terms: In a radioligand displacement assay an active substance lowers the binding of a labelled ligand.

Regarding `CC(C)C[C@H](NC(=O)[C@H](CCC(=O)O)NC(=O)[C@H](Cc1cnc[nH]1)NC(=O)[C@H](CC(C)C)NC(=O)[C@H](CCC(=O)O)NC(=O)[C@H](C)NC(=O)[C@H](CO)NC(=O)[C@H](CC(C)C)NC(=O)[C@H](CCCNC(=N)N)NC(=O)CNC(=O)[C@H](CC(C)C)NC(=O)[C@@H](NC(=O)[C@H](C)NC(=O)[C@@H](NC(=O)[C@H](CO)NC(=O)[C@H](CC(C)C)NC(=O)[C@H](CCC(=O)O)NC(=O)[C@H](CO)NC(=O)[C@H](C)NC(=O)CC[C@H](NC(=O)CCCCCCCCCCCCCCCCC(=O)O)C(=O)O)[C@@H](C)O)C(C)C)C(=O)N[C@@H](C)C(=O)N[C@H](C(=O)N[C@@H](CC(C)C)C(=O)N1CCC[C@H]1C(=O)N[C@@H](CCCNC(=N)N)C(=O)N[C@H](C(=O)N[C@@H](CCC(=O)O)C(=O)N[C@H](C(=O)NCC(=O)N[C@@H](CO)C(=O)NCC(=O)N[C@@H](CO)C(=O)N1CCC[C@H]1C(N)=O)[C@@H](C)O)[C@@H](C)O)[C@@H](C)O` ({C18 diacid-γGlu}-ASELSTAVLGRLSAELHELATLPRTETGSGSP-NH2), the EC50 in data set [1] was 0.01 nM; on Calcitonin receptor [2] it was 0.014 nM; in data set [3], 0.017 nM; on Calcitonin receptor [4], 0.011 nM. The solubility at 18 h in data set [5], in data set [6], in data set [7], in [8], in data set [9] and in data set [10] was not below 200 µM in each case. Besides, the solubility at 18 h in [11] and in data set [12] was not below 200 µM throughout. Also, the IC50 in data set [13] is 0.764 nM.
Turning to `CC(C)C[C@H](NC(=O)[C@H](CCC(=O)O)NC(=O)[C@H](Cc1cnc[nH]1)NC(=O)[C@H](CC(C)C)NC(=O)[C@H](CCC(=O)O)NC(=O)[C@H](C)NC(=O)[C@H](CO)NC(=O)[C@H](CC(C)C)NC(=O)[C@H](CCCNC(=N)N)NC(=O)CNC(=O)[C@H](CC(C)C)NC(=O)[C@@H](NC(=O)[C@H](C)NC(=O)[C@@H](NC(=O)[C@@H](NC(=O)[C@H](CC(C)C)NC(=O)[C@H](CCC(=O)O)NC(=O)[C@H](CO)NC(=O)[C@H](C)NC(=O)CC[C@H](NC(=O)CCCCCCCCCCCCCCCCC(=O)O)C(=O)O)[C@@H](C)O)[C@@H](C)O)C(C)C)C(=O)N[C@@H](C)C(=O)N[C@H](C(=O)N[C@@H](CC(C)C)C(=O)N1CCC[C@H]1C(=O)N[C@@H](CCCNC(=N)N)C(=O)N[C@H](C(=O)N[C@@H](CCC(=O)O)C(=O)N[C@H](C(=O)NCC(=O)N[C@H](C(=O)NCC(=O)N[C@H](C(=O)N1CCC[C@H]1C(N)=O)[C@@H](C)O)[C@@H](C)O)[C@@H](C)O)[C@@H](C)O)[C@@H](C)O` ({C18 diacid-γGlu}-ASELTTAVLGRLSAELHELATLPRTETGTGTP-NH2), the EC50 was 0.065 nM in [1], 0.032 nM on Calcitonin receptor [2], 0.052 nM in data set [3] and 0.013 nM on Calcitonin receptor [4]. Moreover, the solubility at 18 h in [5], in [6], in [7], in data set [8], in data set [9] and in data set [10] was not below 200 µM in each case. In addition, the solubility at 18 h in data set [11] and in data set [12] was not below 200 µM each time. In addition, the IC50 in [13] is 2.15 nM.
As to `CC(C)C[C@H](NC(=O)CNC(=O)[C@H](CO)NC(=O)[C@H](C)NC(=O)CC[C@H](NC(=O)CCCCCCCCCCCCCCCCCCC(=O)O)C(=O)O)C(=O)N[C@@H](CO)C(=O)N[C@H](C(=O)N[C@@H](C)C(=O)N[C@@H](C)C(=O)N[C@@H](CC(C)C)C(=O)NCC(=O)N[C@@H](CCCNC(=N)N)C(=O)N[C@@H](CC(C)C)C(=O)N[C@@H](CO)C(=O)N[C@@H](C)C(=O)N[C@@H](CCC(=O)O)C(=O)N[C@@H](CC(C)C)C(=O)N[C@@H](Cc1cnc[nH]1)C(=O)N[C@@H](CCC(=O)O)C(=O)N[C@@H](CC(C)C)C(=O)N[C@@H](C)C(=O)N[C@H](C(=O)N[C@@H](Cc1ccc(O)cc1)C(=O)N1CCC[C@H]1C(=O)N[C@@H](CCCNC(=N)N)C(=O)N[C@H](C(=O)N[C@@H](CCC(=O)O)C(=O)N[C@H](C(=O)NCC(=O)N[C@@H](CO)C(=O)NCC(=O)N[C@@H](CO)C(=O)N1CCC[C@H]1C(N)=O)[C@@H](C)O)[C@@H](C)O)[C@@H](C)O)[C@@H](C)O` ({C20 diacid-γGlu}-ASGLSTAALGRLSAELHELATYPRTETGSGSP-NH2), the EC50 in data set [1] is 0.038 nM; at Calcitonin receptor [2], 0.042 nM; in [3], 0.071 nM; at Calcitonin receptor [4] it was 0.045 nM. The solubility at 18 h in [5], in data set [6], in [7], in data set [8], in [9] and in data set [10] was not below 200 µM in each case. Moreover, the solubility at 18 h in data set [11] and in data set [12] was not below 200 µM each time. The IC50 in data set [13] is 0.111 nM.
For `CC(C)C[C@H](NC(=O)CNC(=O)[C@H](CO)NC(=O)[C@H](C)NC(=O)CC[C@H](NC(=O)CCCCCCCCCCCCCCCCCCC(=O)O)C(=O)O)C(=O)N[C@@H](CO)C(=O)N[C@H](C(=O)N[C@@H](C)C(=O)N[C@H](C(=O)N[C@@H](CC(C)C)C(=O)NCC(=O)N[C@@H](CCCNC(=N)N)C(=O)N[C@@H](CC(C)C)C(=O)N[C@@H](CO)C(=O)N[C@@H](CCC(N)=O)C(=O)N[C@@H](CCC(=O)O)C(=O)N[C@@H](CC(C)C)C(=O)N[C@@H](Cc1cnc[nH]1)C(=O)N[C@@H](CCC(=O)O)C(=O)N[C@@H](CC(C)C)C(=O)N[C@@H](CCC(N)=O)C(=O)N[C@H](C(=O)N[C@@H](Cc1ccc(O)cc1)C(=O)N1CCC[C@H]1C(=O)N[C@@H](CCCNC(=N)N)C(=O)N[C@H](C(=O)N[C@@H](CCC(=O)O)C(=O)N[C@H](C(=O)NCC(=O)N[C@@H](CO)C(=O)NCC(=O)N[C@H](C(=O)N[C@@H](Cc1ccc(O)cc1)C(N)=O)[C@@H](C)O)[C@@H](C)O)[C@@H](C)O)[C@@H](C)O)[C@@H](C)O)[C@@H](C)O` ({C20 diacid-γGlu}-ASGLSTATLGRLSQELHELQTYPRTETGSGTY-NH2), the EC50 was 0.04 nM in data set [1], 0.034 nM on Calcitonin receptor [2], 0.122 nM in data set [3] and 0.092 nM on Calcitonin receptor [4]. Further, the solubility at 18 h in data set [5], in [6], in [7], in [9], in [10] and in [11] was not below 200 µM each time. In addition, in data set [12], the solubility at 18 h was not below 200 µM. In data set [13], the IC50 is 0.079 nM.
Turning to `CC(C)C[C@H](NC(=O)CC[C@H](NC(=O)CCCCCCCCCCCCCCCCCCC(=O)O)C(=O)O)C(=O)N[C@@H](CO)C(=O)NCC(=O)N[C@@H](CC(C)C)C(=O)N[C@@H](CO)C(=O)N[C@H](C(=O)N[C@@H](C)C(=O)N[C@H](C(=O)N[C@@H](CC(C)C)C(=O)NCC(=O)N[C@@H](CCCNC(=N)N)C(=O)N[C@@H](CC(C)C)C(=O)N[C@@H](CO)C(=O)N[C@@H](C)C(=O)N[C@@H](CCC(=O)O)C(=O)N[C@@H](CC(C)C)C(=O)N[C@@H](Cc1cnc[nH]1)C(=O)N[C@@H](CCC(=O)O)C(=O)N[C@@H](CC(C)C)C(=O)N[C@@H](CO)C(=O)N[C@H](C(=O)N[C@@H](Cc1ccc(O)cc1)C(=O)N1CCC[C@H]1C(=O)N[C@@H](CCCNC(=N)N)C(=O)N[C@H](C(=O)N[C@@H](CCC(=O)O)C(=O)N[C@H](C(=O)NCC(=O)N[C@@H](CO)C(=O)NCC(=O)N[C@H](C(=O)N[C@@H](Cc1ccc(O)cc1)C(N)=O)[C@@H](C)O)[C@@H](C)O)[C@@H](C)O)[C@@H](C)O)C(C)C)[C@@H](C)O` ({C20 diacid-γGlu}-LSGLSTAVLGRLSAELHELSTYPRTETGSGTY-NH2), the EC50 was 0.024 nM in [1], 0.028 nM at Calcitonin receptor [2], 0.064 nM in data set [3] and 0.034 nM at Calcitonin receptor [4]. For the same compound, the solubility at 18 h in [5], in data set [6], in data set [7], in [9], in data set [10] and in [11] was not below 200 µM throughout. Moreover, in data set [12], the solubility at 18 h was not below 200 µM. Also, in data set [13], the IC50 is 11.8 nM.
